Results reported in the CheMixHub viscosity set.
± gives the uncertainty stated by the source.

Experiment: xn = mol fraction of the nth substance listed

CN(C)C=O + CCCO
viscosity [mPa·s], 101 kPa
Conditions	293.15 K	298.15 K	303.15 K	308.15 K	313.15 K	318.15 K	323.15 K
x1 = 0.4512	–	1.232 ± 0.31	–	–	–	–	–
x1 = 0.5	–	–	0.893 ± 0.022	–	0.764 ± 0.019	–	0.655 ± 0.017
x2 = 0.1001	–	–	0.7821 ± 0.0067	0.7366 ± 0.0064	0.6955 ± 0.0061	0.6569 ± 0.0058	0.6217 ± 0.0055
x2 = 0.1007	0.9529 ± 0.02	–	0.8538 ± 0.018	–	0.7741 ± 0.016	–	0.7068 ± 0.015
x2 = 0.2001	–	–	0.8111 ± 0.007	0.7618 ± 0.0066	0.7167 ± 0.0063	0.6752 ± 0.006	0.638 ± 0.0057
x2 = 0.2026	0.9902 ± 0.021	–	0.8826 ± 0.018	–	0.7929 ± 0.017	–	0.7215 ± 0.015
x2 = 0.2518	1.01 ± 0.021	–	0.8911 ± 0.019	–	0.7973 ± 0.017	–	0.7241 ± 0.015
x2 = 0.3	–	–	0.8451 ± 0.0073	0.7912 ± 0.0069	0.742 ± 0.0065	0.698 ± 0.0062	0.657 ± 0.0058
x2 = 0.3548	1.03 ± 0.022	–	0.9064 ± 0.019	–	0.8052 ± 0.017	–	0.7257 ± 0.015
x2 = 0.3967	–	–	0.8868 ± 0.0076	0.8273 ± 0.0072	0.7741 ± 0.0068	0.7256 ± 0.0064	0.6801 ± 0.0061
x2 = 0.5002	–	–	0.9267 ± 0.0081	0.8623 ± 0.0075	0.8042 ± 0.0071	0.7517 ± 0.0067	0.7022 ± 0.0063
x2 = 0.5007	1.109 ± 0.023	–	0.9588 ± 0.02	–	0.84 ± 0.018	–	0.7422 ± 0.016
x2 = 0.5008	1.127 ± 0.024	–	0.977 ± 0.021	–	0.8569 ± 0.018	–	0.7593 ± 0.016
x2 = 0.5981	–	–	–	–	0.8728 ± 0.018	–	–
x2 = 0.5982	1.175 ± 0.025	–	1.01 ± 0.021	–	–	–	0.7643 ± 0.016
x2 = 0.6	–	–	0.9903 ± 0.0087	0.9169 ± 0.008	0.8505 ± 0.0075	0.7912 ± 0.007	0.7367 ± 0.0066
x2 = 0.6981	1.315 ± 0.028	–	1.112 ± 0.023	–	0.9521 ± 0.02	–	0.8239 ± 0.017
x2 = 0.7001	–	–	1.076 ± 0.0096	0.9904 ± 0.0087	0.9148 ± 0.0081	0.8466 ± 0.0076	0.784 ± 0.007
x2 = 0.75	1.368 ± 0.029	–	1.146 ± 0.024	–	0.9688 ± 0.021	–	0.8261 ± 0.017
x2 = 0.7989	1.476 ± 0.031	–	1.231 ± 0.026	–	1.037 ± 0.022	–	0.8829 ± 0.019
x2 = 0.8001	–	–	1.204 ± 0.011	1.1 ± 0.0098	1.008 ± 0.009	0.9264 ± 0.0083	0.8521 ± 0.0076
x2 = 0.8981	1.734 ± 0.037	–	1.412 ± 0.03	–	1.164 ± 0.025	–	0.9688 ± 0.021
x2 = 0.9001	–	–	1.403 ± 0.013	1.272 ± 0.011	1.153 ± 0.01	1.074 ± 0.0097	0.955 ± 0.0089

c1ccccc1 + CCO
Conditions	viscosity [mPa·s]
293.15 K, 101 kPa, x1 = 0.16	1.017 ± 0.027
293.15 K, 101 kPa, x1 = 0.37	0.81 ± 0.021
293.15 K, 101 kPa, x1 = 0.64	0.657 ± 0.017
298.15 K, 101 kPa, x1 = 0.1259	0.916 ± 0.009
298.15 K, 101 kPa, x1 = 0.16	0.926 ± 0.025
298.15 K, 101 kPa, x1 = 0.2547	0.805 ± 0.008
298.15 K, 101 kPa, x1 = 0.37	0.759 ± 0.02
298.15 K, 101 kPa, x1 = 0.4079	0.708 ± 0.007
298.15 K, 101 kPa, x1 = 0.554	0.643 ± 0.007
298.15 K, 101 kPa, x1 = 0.64	0.624 ± 0.017
298.15 K, 101 kPa, x1 = 0.676	0.611 ± 0.006
298.15 K, 101 kPa, x1 = 0.779	0.583 ± 0.006
298.15 K, 101 kPa, x1 = 0.842	0.584 ± 0.006
298.15 K, 101 kPa, x1 = 0.91	0.587 ± 0.006
298.15 K, 101.33 kPa, x1 = 0.0518	1.013 ± 0.008
298.15 K, 101.33 kPa, x1 = 0.1059	0.959 ± 0.006
298.15 K, 101.33 kPa, x1 = 0.1078	0.955 ± 0.008
298.15 K, 101.33 kPa, x1 = 0.1897	0.88 ± 0.006
298.15 K, 101.33 kPa, x1 = 0.1934	0.884 ± 0.007
298.15 K, 101.33 kPa, x1 = 0.2966	0.794 ± 0.005
298.15 K, 101.33 kPa, x1 = 0.3308	0.776 ± 0.007
298.15 K, 101.33 kPa, x1 = 0.3795	0.728 ± 0.006
298.15 K, 101.33 kPa, x1 = 0.3983	0.731 ± 0.005
298.15 K, 101.33 kPa, x1 = 0.4887	0.681 ± 0.005
298.15 K, 101.33 kPa, x1 = 0.5514	0.651 ± 0.006
298.15 K, 101.33 kPa, x1 = 0.5729	0.647 ± 0.006
298.15 K, 101.33 kPa, x1 = 0.5993	0.638 ± 0.004
298.15 K, 101.33 kPa, x1 = 0.6579	0.607 ± 0.005
298.15 K, 101.33 kPa, x1 = 0.6973	0.61 ± 0.004
298.15 K, 101.33 kPa, x1 = 0.7073	0.588 ± 0.005
298.15 K, 101.33 kPa, x1 = 0.7987	0.59 ± 0.004
298.15 K, 101.33 kPa, x1 = 0.8126	0.567 ± 0.005
298.15 K, 101.33 kPa, x1 = 0.8995	0.582 ± 0.004
298.15 K, 101.33 kPa, x2 = 0.0192	0.567 ± 0.005
298.15 K, 101.33 kPa, x2 = 0.113	0.645 ± 0.0052
298.15 K, 101.33 kPa, x2 = 0.2	0.597 ± 0.012
298.15 K, 101.33 kPa, x2 = 0.306	0.642 ± 0.0051
298.15 K, 101.33 kPa, x2 = 0.5	0.712 ± 0.0057
298.15 K, 101.33 kPa, x2 = 0.692	0.816 ± 0.0065
298.15 K, 101.33 kPa, x2 = 0.892	0.977 ± 0.0078
298.16 K, 101 kPa, x2 = 0.1	0.583 ± 0.005
298.16 K, 101 kPa, x2 = 0.2	0.587 ± 0.005
298.16 K, 101 kPa, x2 = 0.3	0.605 ± 0.005
298.16 K, 101 kPa, x2 = 0.4	0.635 ± 0.005
298.16 K, 101 kPa, x2 = 0.5	0.675 ± 0.006
298.16 K, 101 kPa, x2 = 0.6	0.723 ± 0.006
298.16 K, 101 kPa, x2 = 0.7	0.782 ± 0.007
298.16 K, 101 kPa, x2 = 0.8	0.861 ± 0.007
298.16 K, 101 kPa, x2 = 0.9	0.959 ± 0.008
303 K, 100 kPa, x2 = 0.4	0.596 ± 0.005
303.15 K, 101 kPa, x1 = 0.1259	0.841 ± 0.009
303.15 K, 101 kPa, x1 = 0.16	0.839 ± 0.022
303.15 K, 101 kPa, x1 = 0.2547	0.737 ± 0.008
303.15 K, 101 kPa, x1 = 0.37	0.681 ± 0.018
303.15 K, 101 kPa, x1 = 0.4079	0.65 ± 0.007
303.15 K, 101 kPa, x1 = 0.554	0.593 ± 0.006
303.15 K, 101 kPa, x1 = 0.64	0.571 ± 0.015
303.15 K, 101 kPa, x1 = 0.676	0.564 ± 0.006
303.15 K, 101 kPa, x1 = 0.779	0.544 ± 0.006
303.15 K, 101 kPa, x1 = 0.842	0.546 ± 0.006
303.15 K, 101 kPa, x1 = 0.91	0.547 ± 0.006
308 K, 100 kPa, x2 = 0.4	0.551 ± 0.004
308.15 K, 101 kPa, x1 = 0.1259	0.769 ± 0.008
308.15 K, 101 kPa, x1 = 0.16	0.772 ± 0.021
308.15 K, 101 kPa, x1 = 0.2547	0.675 ± 0.007
308.15 K, 101 kPa, x1 = 0.37	0.623 ± 0.017
308.15 K, 101 kPa, x1 = 0.4079	0.598 ± 0.006
308.15 K, 101 kPa, x1 = 0.554	0.548 ± 0.006
308.15 K, 101 kPa, x1 = 0.64	0.538 ± 0.014
308.15 K, 101 kPa, x1 = 0.676	0.526 ± 0.006
308.15 K, 101 kPa, x1 = 0.779	0.511 ± 0.005
308.15 K, 101 kPa, x1 = 0.842	0.511 ± 0.005
308.15 K, 101 kPa, x1 = 0.91	0.51 ± 0.005
313 K, 100 kPa, x2 = 0.4	0.528 ± 0.004
313.15 K, 101 kPa, x1 = 0.1259	0.705 ± 0.007
313.15 K, 101 kPa, x1 = 0.16	0.699 ± 0.019
313.15 K, 101 kPa, x1 = 0.2547	0.622 ± 0.007
313.15 K, 101 kPa, x1 = 0.37	0.567 ± 0.015
313.15 K, 101 kPa, x1 = 0.4079	0.553 ± 0.006
313.15 K, 101 kPa, x1 = 0.5	0.5326 ± 0.0079
313.15 K, 101 kPa, x1 = 0.554	0.51 ± 0.005
313.15 K, 101 kPa, x1 = 0.64	0.5 ± 0.013
313.15 K, 101 kPa, x1 = 0.676	0.488 ± 0.005
313.15 K, 101 kPa, x1 = 0.7	0.4812 ± 0.0072
313.15 K, 101 kPa, x1 = 0.779	0.478 ± 0.005
313.15 K, 101 kPa, x1 = 0.842	0.481 ± 0.005
313.15 K, 101 kPa, x1 = 0.91	0.479 ± 0.005
313.15 K, 101.33 kPa, x2 = 0.113	0.525 ± 0.0042
313.15 K, 101.33 kPa, x2 = 0.306	0.515 ± 0.0041
313.15 K, 101.33 kPa, x2 = 0.5	0.555 ± 0.0044
313.15 K, 101.33 kPa, x2 = 0.692	0.629 ± 0.005
313.15 K, 101.33 kPa, x2 = 0.892	0.748 ± 0.006
318 K, 100 kPa, x2 = 0.4	0.477 ± 0.004
318.15 K, 101 kPa, x1 = 0.1259	0.646 ± 0.007
318.15 K, 101 kPa, x1 = 0.2547	0.573 ± 0.006
318.15 K, 101 kPa, x1 = 0.4079	0.514 ± 0.005
318.15 K, 101 kPa, x1 = 0.554	0.475 ± 0.005
318.15 K, 101 kPa, x1 = 0.676	0.458 ± 0.005
318.15 K, 101 kPa, x1 = 0.779	0.447 ± 0.005
318.15 K, 101 kPa, x1 = 0.842	0.451 ± 0.005
318.15 K, 101 kPa, x1 = 0.91	0.451 ± 0.005
323.15 K, 101.33 kPa, x2 = 0.2	0.424 ± 0.0085
